Laboratory results: patent publication US10799507B2, “5-(7H-pyrrolo[2,3-d]pyrimidin-4-yl)-5-azaspiro[2.5]octane-8-carboxylic acid derivatives as novel JAK kinase inhibitors” (LEO Pharma A/S, priority 2017, dated 2020)

Experiments:
[1] = target: JAK1 (Homo sapiens (Human), UniProt P23458); experiment: JAK kinase assay (HTRF), JAK1; format: biochemical; details: catalytic domain, ATP at Km (7 μM)
How it was run: (§1)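 Catalytic-domain human JAK1 (GST-tagged, aa 850-1154) or His-tagged JAK2, baculovirus-expressed, phosphorylated 1 µM biotinylated TK peptide at Km ATP (JAK1 7 µM, 10 mM MgCl2, 50 nM SEB; JAK2 4 µM, 5 mM MgCl2) in pH 7.0 Hepes, 20-30 min RT. EDTA stop; overnight streptavidin-XL665/cryptate HTRF read.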

[2] = target: JAK2 (Homo sapiens (Human), UniProt O60674); experiment: JAK kinase assay (HTRF), JAK2; format: biochemical; details: catalytic domain, ATP at Km (4 μM)
Chain of JAK2 (O60674 849-1124): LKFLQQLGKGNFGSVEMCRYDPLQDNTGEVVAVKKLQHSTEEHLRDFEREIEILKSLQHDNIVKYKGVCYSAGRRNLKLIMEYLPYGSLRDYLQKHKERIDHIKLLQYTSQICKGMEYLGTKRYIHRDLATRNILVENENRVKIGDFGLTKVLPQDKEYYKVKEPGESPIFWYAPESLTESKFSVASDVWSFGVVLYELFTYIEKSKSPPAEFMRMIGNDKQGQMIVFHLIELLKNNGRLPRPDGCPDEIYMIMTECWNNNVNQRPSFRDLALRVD
How it was run: as §1

[3] = target: JAK3 (Homo sapiens (Human), UniProt P52333); experiment: JAK kinase assay (HTRF), JAK3; format: biochemical; details: catalytic domain, ATP at Km (2 μM)
Chain of JAK3 (P52333 822-1111): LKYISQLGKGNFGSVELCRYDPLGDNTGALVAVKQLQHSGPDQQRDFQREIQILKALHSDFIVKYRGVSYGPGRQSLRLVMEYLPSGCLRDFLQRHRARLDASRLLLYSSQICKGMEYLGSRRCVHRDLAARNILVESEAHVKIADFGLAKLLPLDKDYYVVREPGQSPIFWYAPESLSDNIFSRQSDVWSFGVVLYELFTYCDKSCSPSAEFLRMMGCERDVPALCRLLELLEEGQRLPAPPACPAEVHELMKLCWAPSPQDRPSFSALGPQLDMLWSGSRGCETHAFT
How it was run: (§2)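 HTRF read-out of biotinylated TK peptide phosphorylation (1 μM) after a 20-30 min RT reaction in pH 7.0 Hepes buffer with 5 mM MgCl2 and 0.75% DMSO. JAK3 (His-tagged catalytic domain) used 2 μM ATP; TYK2 (GST-tagged, aa 871-1187) used 13 μM ATP plus 50 nM SEB, each at ATP Km.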

[4] = target: TYK2 (Homo sapiens (Human), UniProt P29597); experiment: JAK kinase assay (HTRF), TYK2; format: biochemical; details: catalytic domain, ATP at Km (13 μM)
Chain of TYK2 (P29597 871-1187): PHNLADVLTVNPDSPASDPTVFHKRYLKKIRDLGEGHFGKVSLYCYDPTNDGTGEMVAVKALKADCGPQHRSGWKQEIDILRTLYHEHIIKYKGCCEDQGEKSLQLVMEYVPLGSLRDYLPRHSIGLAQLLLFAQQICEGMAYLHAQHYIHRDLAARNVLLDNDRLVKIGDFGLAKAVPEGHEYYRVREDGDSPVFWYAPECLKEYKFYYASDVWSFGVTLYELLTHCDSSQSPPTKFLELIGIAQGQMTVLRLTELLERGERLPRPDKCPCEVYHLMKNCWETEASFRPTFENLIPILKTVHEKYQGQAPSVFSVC
How it was run: as §2

[5] = in vitro metabolic stability in human liver microsomes; format: in vitro ADME; details: human, liver microsomes, 0.5 μM compound, 0.5 mg/mL microsomes, NADPH, 40 min, 37° C.; read-out: Human liver microsome Clapp (apparent intrinsic clearance)
How it was run: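 Compounds at 0.5 μM incubated in duplicate with human liver microsomes (0.5 mg/mL), phosphate buffer and NADPH at 37 °C for 40 min, sampled at 0, 5, 10, 20, 40 min into cold acetonitrile. LC-TOF-MS depletion gave elimination rate constant, from which apparent intrinsic clearance (Clapp) was calculated.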

Chain of JAK1 (P23458 850-1154): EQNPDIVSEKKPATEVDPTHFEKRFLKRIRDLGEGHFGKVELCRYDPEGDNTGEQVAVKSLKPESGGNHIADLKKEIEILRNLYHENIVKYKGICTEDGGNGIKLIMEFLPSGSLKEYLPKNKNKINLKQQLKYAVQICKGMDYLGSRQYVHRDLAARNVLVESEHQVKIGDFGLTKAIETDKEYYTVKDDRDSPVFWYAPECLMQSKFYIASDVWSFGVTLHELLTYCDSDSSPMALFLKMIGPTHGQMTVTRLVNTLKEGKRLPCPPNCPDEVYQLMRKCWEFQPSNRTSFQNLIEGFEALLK

Compound: Cc1cc([C@H](CO)NC(=O)[C@H]2CCN(c3ncnc4[nH]ccc34)CC23CC3)ccc1C#N [Example 54, (8S)-N-[(1R)-1-(4-cyano-3-methyl-phenyl)-2-hydroxy-ethyl]-5-(7H-pyrrolo[2,3-d]pyrimidin-4-yl)-5-azaspiro[2.5]octane-8-carboxamide]
- EC50 [1]: 3.6 nM
- EC50 [2]: 13.5 nM
- EC50 [3]: 33 nM
- EC50 [4]: 135 nM
- CLint scaled at 0.5 μM [5]: 142 mL/min/kg

Compound: O=C(NCC1CC(F)(F)C1)C1CCN(c2ncnc3[nH]ccc23)CC12CC2 (centres unmarked) [Example 56, N-[(3,3-difluorocyclobutyl)methyl]-5-(7H-pyrrolo[2,3-d]pyrimidin-4-yl)-5-azaspiro[2.5]octane-8-carboxamide]
- EC50 [1]: 3.9 nM
- EC50 [2]: 8.3 nM
- EC50 [3]: 18.1 nM
- EC50 [4]: 170 nM
- CLint scaled at 0.5 μM [5]: 63 mL/min/kg

Compound: C[C@@](CO)(NC(=O)[C@H]1CCN(c2ncnc3[nH]ccc23)CC12CC2)c1ccc(C#N)cn1 [Example 57, (8S)-N-[(1R)-1-(5-cyano-2-pyridyl)-2-hydroxy-1-methyl-ethyl]-5-(7H-pyrrolo[2,3-d]pyrimidin-4-yl)-5-azaspiro[2.5]octane-8-carboxamide]
- EC50 [1]: 4.1 nM
- EC50 [2]: 9 nM
- EC50 [3]: 21.3 nM
- EC50 [4]: 193 nM
- CLint scaled at 0.5 μM [5]: 39 mL/min/kg

Compound: O=C(NCC1(CO)CCCC1)C1CCN(c2ncnc3[nH]ccc23)CC12CC2 (centres unmarked) [Example 58, N-[[1-(hydroxymethyl)cyclopentyl]methyl]-5-(7H-pyrrolo[2,3-d]pyrimidin-4-yl)-5-azaspiro[2.5]octane-8-carboxamide]
- EC50 [1]: 4.1 nM
- EC50 [2]: 13 nM
- EC50 [3]: 30.3 nM
- EC50 [4]: 142 nM
- CLint scaled at 0.5 μM [5]: 143 mL/min/kg

Compound: N#CC1CC(CNC(=O)C2CCN(c3ncnc4[nH]ccc34)CC23CC3)C1 (centres unmarked) [Example 59, N-[(3-cyanocyclobutyl)methyl]-5-(7H-pyrrolo[2,3-d]pyrimidin-4-yl)-5-azaspiro[2.5]octane-8-carboxamide]
- EC50 [1]: 4.2 nM
- EC50 [2]: 12.1 nM
- EC50 [3]: 24.5 nM
- EC50 [4]: 322 nM
- CLint scaled at 0.5 μM [5]: 28 mL/min/kg

Compound: O=C(NCC1CC(F)(F)C1)[C@H]1CCN(c2ncnc3[nH]ccc23)CC12CC2 [Example 62, (8S)-N-[(3,3-difluorocyclobutyl)methyl]-5-(7H-pyrrolo[2,3-d]pyrimidin-4-yl)-5-azaspiro[2.5]octane-8-carboxamide]
- EC50 [1]: 4.5 nM
- EC50 [2]: 7 nM
- EC50 [3]: 15.7 nM
- EC50 [4]: 47.5 nM
- CLint scaled at 0.5 μM [5]: 48 mL/min/kg

Compound: O=C(NC[C@@H](O)c1ccccc1)C1CCN(c2ncnc3[nH]ccc23)CC12CC2 (stereo partly drawn) [Example 63, N-[(2S)-2-hydroxy-2-phenyl-ethyl]-5-(7H-pyrrolo[2,3-d]pyrimidin-4-yl)-5-azaspiro[2.5]octane-8-carboxamide]
- EC50 [1]: 4.5 nM
- EC50 [2]: 15.9 nM
- EC50 [3]: 58.5 nM
- EC50 [4]: 147 nM
- CLint scaled at 0.5 μM [5]: > 200 mL/min/kg

Compound: Cc1ccc([C@H](O)CNC(=O)[C@H]2CCN(c3ncnc4[nH]ccc34)CC23CC3)cc1 [Example 64, (8S)-N-[(2S)-2-hydroxy-2-(p-tolyl)ethyl]-5-(7H-pyrrolo[2,3-d]pyrimidin-4-yl)-5-azaspiro[2.5]octane-8-carboxamide]
- EC50 [1]: 4.5 nM
- EC50 [2]: 6.7 nM
- EC50 [3]: 28.5 nM
- EC50 [4]: 90.9 nM
- CLint scaled at 0.5 μM [5]: > 200 mL/min/kg

Compound: O=C(NCC1(O)CCC1)[C@H]1CCN(c2ncnc3[nH]ccc23)CC12CC2 [Example 68, (8S)-N-[(1-hydroxycyclobutyl)methyl]-5-(7H-pyrrolo[2,3-d]pyrimidin-4-yl)-5-azaspiro[2.5]octane-8-carboxamide]
- EC50 [1]: 5.1 nM
- EC50 [2]: 11.8 nM
- EC50 [3]: 29.6 nM
- EC50 [4]: 78.1 nM
- CLint scaled at 0.5 μM [5]: 23 mL/min/kg

Compound: O=C(N[C@@H](CO)c1ccccc1)C1CCN(c2ncnc3[nH]ccc23)CC12CC2 (stereo partly drawn) [Example 69, N-[(1R)-2-hydroxy-1-phenyl-ethyl]-5-(7H-pyrrolo[2,3-d]pyrimidin-4-yl)-5-azaspiro[2.5]octane-8-carboxamide]
- EC50 [1]: 5.1 nM
- EC50 [2]: 12 nM
- EC50 [3]: 29.1 nM
- EC50 [4]: 298 nM
- CLint scaled at 0.5 μM [5]: 44 mL/min/kg

Compound: O=C(NCC1(O)CCCCC1)[C@H]1CCN(c2ncnc3[nH]ccc23)CC12CC2 [Example 74, (8S)-N-[(1-hydroxycyclohexyl)methyl]-5-(7H-pyrrolo[2,3-d]pyrimidin-4-yl)-5-azaspiro[2.5]octane-8-carboxamide]
- EC50 [1]: 6.1 nM
- EC50 [2]: 15.3 nM
- EC50 [3]: 23.2 nM
- EC50 [4]: 55.7 nM
- CLint scaled at 0.5 μM [5]: 37 mL/min/kg

Compound: O=C(NCC1CCCC1)C1CCN(c2ncnc3[nH]ccc23)CC12CC2 (centres unmarked) [Example 82, N-(cyclopentylmethyl)-5-(7H-pyrrolo[2,3-d]pyrimidin-4-yl)-5-azaspiro[2.5]octane-8-carboxamide]
- EC50 [1]: 6.8 nM
- EC50 [2]: 11.5 nM
- EC50 [3]: 38.7 nM
- EC50 [4]: 400 nM
- CLint scaled at 0.5 μM [5]: 198 mL/min/kg

Compound: C[C@H](NC(=O)C1CCN(c2ncnc3[nH]ccc23)CC12CC2)c1cccc(C#N)c1 (stereo partly drawn) [Example 86, N-[(1S)-1-(3-cyanophenyl)ethyl]-5-(7H-pyrrolo[2,3-d]pyrimidin-4-yl)-5-azaspiro[2.5]octane-8-carboxamide]
- EC50 [1]: 7.1 nM
- EC50 [2]: 11.3 nM
- EC50 [3]: 38 nM
- EC50 [4]: 47.7 nM
- CLint scaled at 0.5 μM [5]: > 200 mL/min/kg

Compound: O=C(N[C@H](CO)C(=O)OCC1CC1)[C@H]1CCN(c2ncnc3[nH]ccc23)CC12CC2 [Example 91, cyclopropylmethyl (2R)-3-hydroxy-2-[[(8S)-5-(7H-pyrrolo[2,3-d]pyrimidin-4-yl)-5-azaspiro[2.5]octane-8-carbonyl]amino]propanoate]
- EC50 [1]: 8.2 nM
- EC50 [2]: 17.7 nM
- EC50 [3]: 47.3 nM
- EC50 [4]: 163 nM
- CLint scaled at 0.5 μM [5]: 17 mL/min/kg

Compound: N#Cc1ccc([C@@H](CO)NC(=O)C2CCN(c3ncnc4[nH]ccc34)CC23CC3)cc1 (stereo partly drawn) [Example 94, N-[(1S)-1-(4-cyanophenyl)-2-hydroxy-ethyl]-5-(7H-pyrrolo[2,3-d]pyrimidin-4-yl)-5-azaspiro[2.5]octane-8-carboxamide]
- EC50 [1]: 8.6 nM
- EC50 [2]: 53.7 nM
- EC50 [3]: 91.1 nM
- EC50 [4]: 967 nM
- CLint scaled at 0.5 μM [5]: 23 mL/min/kg

Compound: O=C(NCc1ccccc1)C1CCN(c2ncnc3[nH]ccc23)CC12CC2 (centres unmarked) [Example 95, N-benzyl-5-(7H-pyrrolo[2,3-d]pyrimidin-4-yl)-5-azaspiro[2.5]octane-8-carboxamide]
- EC50 [1]: 8.6 nM
- EC50 [2]: 17.9 nM
- EC50 [3]: 31.6 nM
- EC50 [4]: 502 nM
- CLint scaled at 0.5 μM [5]: 135 mL/min/kg

Compound: O=C(NC[C@H](O)c1ccccc1)C1CCN(c2ncnc3[nH]ccc23)CC12CC2 (stereo partly drawn) [Example 103, N-[(2R)-2-hydroxy-2-phenyl-ethyl]-5-(7H-pyrrolo[2,3-d]pyrimidin-4-yl)-5-azaspiro[2.5]octane-8-carboxamide]
- EC50 [1]: 9.9 nM
- EC50 [2]: 21.4 nM
- EC50 [3]: 40.6 nM
- EC50 [4]: 509 nM
- CLint scaled at 0.5 μM [5]: 128 mL/min/kg

Compound: O=C(N[C@@H](CO)[C@@H](O)c1ccc(F)cn1)[C@H]1CCN(c2ncnc3[nH]ccc23)CC12CC2 [Example 105, (8S)-N-[(1S,2R)-2-(5-fluoro-2-pyridyl)-2-hydroxy-1-(hydroxymethyl)ethyl]-5-(7H-pyrrolo[2,3-d]pyrimidin-4-yl)-5-azaspiro[2.5]octane-8-carboxamide]
- EC50 [1]: 10.2 nM
- EC50 [2]: 11.2 nM
- EC50 [3]: 56 nM
- EC50 [4]: 153 nM
- CLint scaled at 0.5 μM [5]: 15 mL/min/kg

Compound: C[C@@H](NC(=O)C1CCN(c2ncnc3[nH]ccc23)CC12CC2)c1ccc(C#N)cc1 (stereo partly drawn) [Example 111, N-[(1R)-1-(4-cyanophenyl)ethyl]-5-(7H-pyrrolo[2,3-d]pyrimidin-4-yl)-5-azaspiro[2.5]octane-8-carboxamide]
- EC50 [1]: 11.2 nM
- EC50 [2]: 52.1 nM
- EC50 [3]: 123 nM
- EC50 [4]: 930 nM
- CLint scaled at 0.5 μM [5]: 111 mL/min/kg

Compound: O=C(N[C@H](CO)c1ccccc1)C1CCN(c2ncnc3[nH]ccc23)CC12CC2 (stereo partly drawn) [Example 127, N-[(1S)-2-hydroxy-1-phenyl-ethyl]-5-(7H-pyrrolo[2,3-d]pyrimidin-4-yl)-5-azaspiro[2.5]octane-8-carboxamide]
- EC50 [1]: 19.9 nM
- EC50 [2]: 52.1 nM
- EC50 [3]: 68.1 nM
- EC50 [4]: 1100 nM
- CLint scaled at 0.5 μM [5]: 44 mL/min/kg

Compound: C[C@H](NC(=O)[C@H]1CCN(c2ncnc3[nH]ccc23)CC12CC2)[C@@H](O)c1ccc(F)c(F)c1 [Example 149, (8S)-N-[(1S,2S)-2-(3,4-difluorophenyl)-2-hydroxy-1-methyl-ethyl]-5-(7H-pyrrolo[2,3-d]pyrimidin-4-yl)-5-azaspiro[2.5]octane-8-carboxamide]
- EC50 [1]: 0.4 nM
- EC50 [2]: 200 nM
- EC50 [3]: 0.6 nM
- EC50 [4]: 4.2 nM
- CLint scaled at 0.5 μM [5]: > 200 mL/min/kg

Compound: O=C(OCC1CC(F)(F)C1)C1CCN(c2ncnc3[nH]ccc23)CC12CC2 (centres unmarked) [Example 153, (3,3-difluorocyclobutyl)methyl 5-(7H-pyrrolo[2,3-d]pyrimidin-4-yl)-5-azaspiro[2.5]octane-8-carboxylate]
- EC50 [1]: 2.3 nM
- EC50 [2]: 3.2 nM
- EC50 [3]: 8.9 nM
- EC50 [4]: 68 nM
- CLint scaled at 0.5 μM [5]: 160 mL/min/kg
